# Reference: patent publication US20240115654A1, “INTRAVENOUS ADMINISTRATION OF ENGINEERED ANTIMICROBIAL AMPHIPHILIC PEPTIDES” (priority 2021, published 2024)
# Peptide text beside a SMILES is read from it.
# Source text: All subjects who met eligibility criteria were confined to the clinical research unit from […] through Day 3. At admission, physical examination, vital signs, 12 lead ECG and weight were obtained, medical and medication history were updated if necessary, safety blood tests (hematology and chemistry), urinalysis, urine drug screen and an alcohol breath test were repeated and a urine pregnancy test was done for women of childbearing potential.
# At each dose level, there were 2 sentinel subjects, (1 active, 1 placebo), who were dosed at least 48 hours in advance of the other subjects in their respective group. Following review of safety data, including physical examination, vital signs, and review of adverse events from the first 2 subjects, enrolment in the cohort continued.
# A 12-lead ECG was performed on Day 1, within 60 minutes of infusion start (in triplicate), mid-way through the infusion, at the completion of the infusion, 30 minutes after completion of the infusion and at various timepoints following the end of the infusion.
# Vital signs were recorded within 60 minutes pre-dose, at the mid-point of the infusion and post dose vitals were assessed at completion of the infusion, 0.5, 1, 2, 3, 4, 6, 9, 12, 24 and 48 hours post dose, after at least 3 minutes of rest in supine position.
# Subjects returned to the study center 7 days after dosing, for the termination visit. A full physical examination, vital signs and weight were obtained, concomitant medications were updated if necessary, safety blood specimens (haematology and chemistry, PT and aPTT) and urine were collected for urinalysis and urine drug screening. A serum pregnancy test was done for women of childbearing potential and a 12-lead ECG was performed.
# In this study dose limiting toxicity (DLT) was defined as any drug related ≥Grade 3 AEs occurring despite optimal therapeutic interventions (which included but were not limited to allergic/hypersensitivity reactions, dermatological reactions/infusion site reactions, haematological toxicities such as neutropenia, thrombocytopenia and anaemia and clinical chemistry abnormalities) experienced up to Day 7 (Termination Visit).
# (§1) All subjects who received any amount of study drug were included in the safety analysis (Safety population).
# The study was a double blinded, randomized, placebo-controlled study. The placebo administered was 0.9% sodium chloride.
# On Day 1 (day of dosing), subjects were randomly assigned either peptide IV or Placebo IV. At each dose level, there were 2 sentinel subjects, (1 active, 1 placebo), who were dosed at least 48 hours in advance of the other subjects in their respective group. Following review of safety data, including physical examination, vital signs, and review of adverse events from the first 2 subjects, enrolment in the cohort continued. All subjects who met eligibility criteria were confined to the clinical research unit from Day −2 through Day 3. At admission, physical examination, vital signs, 12 lead ECG and weight were obtained, medical and medication history were updated if necessary, safety blood tests (hematology and chemistry), urinalysis, urine drug screen and an alcohol breath test were repeated and a urine pregnancy test was done for women of childbearing potential.
# as §1
structure (smiles),measurement,setting,value
CC(C)[C@H](NC(=O)[C@H](Cc1c[nH]c2ccccc12)NC(=O)[C@H](CCCNC(=N)N)NC(=O)[C@H](CCCNC(=N)N)NC(=O)[C@@H](NC(=O)[C@@H](NC(=O)[C@H](CCCNC(=N)N)NC(=O)[C@@H](NC(=O)[C@@H](NC(=O)[C@H](CCCNC(=N)N)NC(=O)[C@H](CCCNC(=N)N)NC(=O)[C@H](Cc1c[nH]c2ccccc12)NC(=O)[C@@H](NC(=O)[C@H](CCCNC(=N)N)NC(=O)[C@H](CCCNC(=N)N)NC(=O)[C@@H](NC(=O)[C@H](CCCNC(=N)N)NC(=O)[C@H](CCCNC(=N)N)NC(=O)[C@@H](NC(=O)[C@H](Cc1c[nH]c2ccccc12)NC(=O)[C@H](CCCNC(=N)N)NC(=O)[C@@H](N)CCCNC(=N)N)C(C)C)C(C)C)C(C)C)C(C)C)C(C)C)C(C)C)C(C)C)C(=O)N[C@@H](CCCNC(=N)N)C(=O)N[C@@H](CCCNC(=N)N)C(N)=O [SEQ ID NO: 1] (H-RRWVRRVRRVWRRVVRVVRRWVRR-NH2),"TEAE severity Grade 5, participants n (%)",Pooled SEQ ID NO: 1 (N = 35),0
same,"Treatment-related TEAE: Abdominal distension, occurrences m",Pooled SEQ ID NO: 1 (N = 35),1
same,"Treatment-related TEAE: Abdominal distension, participants n (%)",Pooled SEQ ID NO: 1 (N = 35),1 (2.9%)
same,"Treatment-related TEAE: Blood and Lymphatic System Disorders, participants n (%)",Pooled SEQ ID NO: 1 (N = 35),0
same,"Treatment-related TEAE: Constipation, participants n (%)",Pooled SEQ ID NO: 1 (N = 35),0
same,"Treatment-related TEAE: Diarrhea, occurrences m",Pooled SEQ ID NO: 1 (N = 35),1
same,"Treatment-related TEAE: Diarrhea, participants n (%)",Pooled SEQ ID NO: 1 (N = 35),1 (2.9%)
same,"Treatment-related TEAE: Dizziness, occurrences m",Pooled SEQ ID NO: 1 (N = 35),1
same,"Treatment-related TEAE: Dizziness, participants n (%)",Pooled SEQ ID NO: 1 (N = 35),1 (2.9%)
same,"Treatment-related TEAE: Feeling hot, participants n (%)",Pooled SEQ ID NO: 1 (N = 35),0
same,"Treatment-related TEAE: Gastrointestinal Disorders, occurrences m",Pooled SEQ ID NO: 1 (N = 35),3
same,"Treatment-related TEAE: Gastrointestinal Disorders, participants n (%)",Pooled SEQ ID NO: 1 (N = 35),2 (5.7%)
same,"Treatment-related TEAE: General Disorders and Administration Site Conditions, occurrences m",Pooled SEQ ID NO: 1 (N = 35),11
same,"Treatment-related TEAE: General Disorders and Administration Site Conditions, participants n (%)",Pooled SEQ ID NO: 1 (N = 35),10 (28.6%)
same,"Treatment-related TEAE: Headache, occurrences m",Pooled SEQ ID NO: 1 (N = 35),1
same,"Treatment-related TEAE: Headache, participants n (%)",Pooled SEQ ID NO: 1 (N = 35),1 (2.9%)
same,"Treatment-related TEAE: Infusion related reaction, occurrences m",Pooled SEQ ID NO: 1 (N = 35),1
same,"Treatment-related TEAE: Infusion related reaction, participants n (%)",Pooled SEQ ID NO: 1 (N = 35),1 (20.0%)
same,"Treatment-related TEAE: Infusion site discomfort, occurrences m",Pooled SEQ ID NO: 1 (N = 35),1
same,"Treatment-related TEAE: Infusion site discomfort, participants n (%)",Pooled SEQ ID NO: 1 (N = 35),1 (2.9%)
same,"Treatment-related TEAE: Infusion site pain, occurrences m",Pooled SEQ ID NO: 1 (N = 35),3
same,"Treatment-related TEAE: Infusion site pain, participants n (%)",Pooled SEQ ID NO: 1 (N = 35),3 (8.6%)
same,"Treatment-related TEAE: Infusion site reaction, occurrences m",Pooled SEQ ID NO: 1 (N = 35),4
same,"Treatment-related TEAE: Infusion site reaction, participants n (%)",Pooled SEQ ID NO: 1 (N = 35),4 (11.4%)
same,"Treatment-related TEAE: Infusion site swelling, occurrences m",Pooled SEQ ID NO: 1 (N = 35),1
same,"Treatment-related TEAE: Infusion site swelling, participants n (%)",Pooled SEQ ID NO: 1 (N = 35),1 (2.9%)
same,"Treatment-related TEAE: Injury, Poisoning, and Procedural Complications, occurrences m",Pooled SEQ ID NO: 1 (N = 35),1
same,"Treatment-related TEAE: Injury, Poisoning, and Procedural Complications, participants n (%)",Pooled SEQ ID NO: 1 (N = 35),1 (20.0%)
same,"Treatment-related TEAE: Macule, occurrences m",Pooled SEQ ID NO: 1 (N = 35),1
same,"Treatment-related TEAE: Macule, participants n (%)",Pooled SEQ ID NO: 1 (N = 35),1 (2.9%)
same,"Treatment-related TEAE: Musculoskeletal and Connective Tissue Disorders, occurrences m",Pooled SEQ ID NO: 1 (N = 35),1
same,"Treatment-related TEAE: Musculoskeletal and Connective Tissue Disorders, participants n (%)",Pooled SEQ ID NO: 1 (N = 35),1 (2.9%)
same,"Treatment-related TEAE: Myalgia, occurrences m",Pooled SEQ ID NO: 1 (N = 35),1
same,"Treatment-related TEAE: Myalgia, participants n (%)",Pooled SEQ ID NO: 1 (N = 35),1 (2.9%)
same,"Treatment-related TEAE: Oropharyngeal pain, participants n (%)",Pooled SEQ ID NO: 1 (N = 35),0
same,"Treatment-related TEAE: Orthostatic hypotension, occurrences m",Pooled SEQ ID NO: 1 (N = 35),1
same,"Treatment-related TEAE: Orthostatic hypotension, participants n (%)",Pooled SEQ ID NO: 1 (N = 35),1 (2.9%)
same,"Treatment-related TEAE: Pain in extremity, participants n (%)",Pooled SEQ ID NO: 1 (N = 35),0
same,"Treatment-related TEAE: Phlebitis, occurrences m",Pooled SEQ ID NO: 1 (N = 35),3
same,"Treatment-related TEAE: Phlebitis, participants n (%)",Pooled SEQ ID NO: 1 (N = 35),3 (8.6%)
same,"Treatment-related TEAE: Respiratory, Thoracic, and Mediastinal disorders, participants n (%)",Pooled SEQ ID NO: 1 (N = 35),0
same,"Treatment-related TEAE: Skin and Subcutaneous Tissue Disorders, occurrences m",Pooled SEQ ID NO: 1 (N = 35),1
same,"Treatment-related TEAE: Skin and Subcutaneous Tissue Disorders, participants n (%)",Pooled SEQ ID NO: 1 (N = 35),1 (2.9%)
same,"Treatment-related TEAE: Thrombocytopenia, participants n (%)",Pooled SEQ ID NO: 1 (N = 35),0
same,"Treatment-related TEAE: Vascular Disorders, occurrences m",Pooled SEQ ID NO: 1 (N = 35),4
same,"Treatment-related TEAE: Vascular Disorders, participants n (%)",Pooled SEQ ID NO: 1 (N = 35),3 (8.6%)
same,"Treatment-related TEAE: Vessel puncture site erythema, occurrences m",Pooled SEQ ID NO: 1 (N = 35),1
same,"Treatment-related TEAE: Vessel puncture site erythema, participants n (%)",Pooled SEQ ID NO: 1 (N = 35),1 (2.9%)
same,"Treatment-related TEAE: Vessel puncture site pain, occurrences m",Pooled SEQ ID NO: 1 (N = 35),1
same,"Treatment-related TEAE: Vessel puncture site pain, participants n (%)",Pooled SEQ ID NO: 1 (N = 35),3 (2.9%)
same,"Treatment-related TEAE: Vomiting, occurrences m",Pooled SEQ ID NO: 1 (N = 35),1
same,"Treatment-related TEAE: Vomiting, participants n (%)",Pooled SEQ ID NO: 1 (N = 35),1 (2.9%)
same,"Number of Participants Reporting at least: Onc TEAE Leading to Study Withdrawal, n (%)",Pooled active cohorts (N = 35),0
same,"Number of Participants Reporting at least: One Dose-Limiting Toxicity, n (%)",Pooled active cohorts (N = 35),0
same,"Number of Participants Reporting at least: One Related TEAE, n (%)",Pooled active cohorts (N = 35),13 (37.1%)
same,"Number of Participants Reporting at least: One Serious TEAE, n (%)",Pooled active cohorts (N = 35),0
same,"Number of Participants Reporting at least: One TEAE Leading to Study Drug Discontinuation, n (%)",Pooled active cohorts (N = 35),2 (5.7%)
same,"Number of Participants Reporting at least: One TEAE with Common Terminology Criteria for Adverse Events (CTCAE) Toxicity ≥ Grade 3, n (%)",Pooled active cohorts (N = 35),0
same,"Number of Participants Reporting at least: One TEAE, n (%)",Pooled active cohorts (N = 35),31 (88.6%)
same,"One Related TEAE, m",Pooled active cohorts (N = 35),23
same,"One TEAE Leading to Study Drug Discontinuation, m",Pooled active cohorts (N = 35),4
same,"One TEAE, m",Pooled active cohorts (N = 35),72
same,"TEAE Severity Grade 1, m",Pooled active cohorts (N = 35),64
same,"TEAE Severity Grade 1, n (%)",Pooled active cohorts (N = 35),30 (85.7%)
same,"TEAE Severity Grade 2, m",Pooled active cohorts (N = 35),8
same,"TEAE Severity Grade 2, n (%)",Pooled active cohorts (N = 35),5 (14.3%)
same,overall safety and tolerability,"healthy volunteers, 0.05 to 1 mg/kg, drug concentration below 0.50 mg/mL and dose rate below 25 mg/hour",safe and well tolerated
same,severity of IRRs in relation to maximum dose rate,maximum dose rate higher (>25 mg/hr),more severe
